This assay concerns the target T1, AXL (human catalytic domain) (Homo sapiens, UniProt P30530).
T1 construct: purchased Upstate Ltd. 14-512
T1 sequence (P30530 473-894): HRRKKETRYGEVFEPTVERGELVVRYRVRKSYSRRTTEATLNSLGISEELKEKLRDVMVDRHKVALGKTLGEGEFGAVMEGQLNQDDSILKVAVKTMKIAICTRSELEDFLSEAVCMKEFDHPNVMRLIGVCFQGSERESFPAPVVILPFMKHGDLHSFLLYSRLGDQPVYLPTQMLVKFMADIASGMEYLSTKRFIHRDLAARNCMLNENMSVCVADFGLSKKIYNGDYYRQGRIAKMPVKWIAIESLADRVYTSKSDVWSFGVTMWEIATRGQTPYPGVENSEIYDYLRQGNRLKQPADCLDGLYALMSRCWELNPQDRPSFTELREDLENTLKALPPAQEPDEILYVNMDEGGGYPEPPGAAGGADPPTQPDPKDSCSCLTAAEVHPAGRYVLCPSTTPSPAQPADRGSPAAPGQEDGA
In words: AXL (human catalytic domain) Enzyme Activity Assay (IMAP fluorescence polarisation). It is filed as biochemical. An outline of the steps:
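Recombinant human AXL isoform 1 (aa473-894; final 15 nM) phosphorylated 100 nM fluorescein-CSK-tide with 150 μM ATP (KM) in HEPES pH 7.0/MgCl2/DTT buffer for 60 min at room temperature. IMAP fluorescence polarisation read after overnight binding; IC50 from 10-point 4-parameter logistic fits.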
For orientation: Polarisation of emitted light reports the rotation of a fluorescent probe.

Where [1] appears, read: further data set (WW-001 through WW-169, XX-001 through XX-469, YY-001 through YY-016, ZZ-001 through ZZ-003), 150 μM ATP.
Where [2] appears, read: first data set, recombinant AXL isoform 1 aa473-894, 150 μM ATP.

Some results are limits rather than exact numbers.

The values below come from patent US8431596B2 (Cancer Research Technology Limited, priority 2007, dated 2013).

The compound `O=C(Nc1cccc(-c2cccc3nc(Nc4ccc(OCCN5CCCC5)cc4)nn23)c1)Nc1ccccc1Cl` [XX-232] registered an IC50 under setting [1] of 1 to 10 µM.

As for `COCC(=O)Nc1nc2cccc(-c3ccc(OC)cc3)n2n1` [WW-041], the IC50 runs as follows: under setting [2], 1 to 10 µM; under setting [1], 1 to 10 µM.

`CCC(=O)Nc1nc2cccc(-c3ccc(OC)cc3)n2n1` [WW-040]: the IC50 by setting is: under setting [2], 1 to 10 µM; under setting [1], 1 to 10 µM. For `O=C(Nc1ccc(C(F)(F)F)cc1)Nc1cccc(-c2cccc3nc(Nc4ccc(OCCN5CCCC5)cc4)nn23)c1` [XX-225], the IC50 under setting [1] fell in the range of 1 to 10 µM. As for `COc1ccc(-c2cccc3nc(NC(=O)C4CC4)nn23)cc1C` [WW-094], the IC50 is less than 1 µM under setting [2] and 0.1 to 1 µM under setting [1]. The like results for `COc1ccc(-c2cccc3nc(Nc4ccc(OCCNCc5cccnc5)cc4)nn23)cc1` [XX-033] were, in that order, less than 1 µM and 0.1 to 1 µM. In turn, `C[C@H](N)COc1ccc(Nc2nc3cccc(-c4ccc5c(c4)OCCO5)n3n2)cc1` [XX-143, [4-((S)-2-Amino-propoxy)-phenyl]-[5-(2,3-dihydro-benzo[1,4]dioxin-6-yl)-[1,2,4]triazolo[1,5-a]pyridin-2-yl]-amine] registered an IC50 under setting [1] of 0.1 to 1 µM. Regarding `CN(C)CCNC(=O)c1ccc(Nc2nc3cccc(-c4ccc5c(c4)OCO5)n3n2)cc1` [XX-087], the half-inhibitory concentration (IC50) under setting [2] was less than 1 µM and the IC50 under setting [1] lay within 0.1 to 1 µM. For the compound `NC(=O)COc1ccc(Nc2nc3cccc(-c4ccc5c(c4)OCCO5)n3n2)cc1` [XX-073], the IC50 is, setting by setting: under setting [2], less than 1 µM; under setting [1], 0.1 to 1 µM. The compound `Cn1cc(-c2ccc(-c3cccc4nc(Nc5ccc(OCCN6CCCC6)cc5)nn34)cc2)cn1` [XX-149] gave an IC50 under setting [1] of 0.1 to 1 µM. On to `O=C(Nc1nc2cccc(-c3cccc(CO)c3)n2n1)C1CC1` [WW-028], for which the IC50 is, setting by setting: under setting [2], 1 to 10 µM; under setting [1], 1 to 10 µM. Turning to `Cc1csc(-c2cccc3nc(NC(=O)C4CC4)nn23)c1` [WW-058], the IC50 under setting [2] lay within 1 to 10 µM and the IC50 under setting [1] is 1 to 10 µM. Regarding `COc1ccc(Nc2nc3cccc(-c4ccc5c(c4)OCCO5)n3n2)cc1OCCN1CCCC1` [XX-132], the IC50 under setting [1] is no more than 0.1 µM.

Turning to `CCN(CC)CCC(=O)Nc1cccc(Nc2nc3cccc(-c4ccc5c(c4)OCCO5)n3n2)c1` [XX-124], the IC50 under setting [1] was 0.1 to 1 µM.

For `COc1ccc(-c2nccc3nc(Nc4ccc(C(=O)NCCN(C)C)cc4)nn23)cc1` [YY-004], the IC50 under setting [2] was less than 1 µM and the IC50 under setting [1] was no more than 0.1 µM. With `c1cc(-c2ccc3c(c2)CCO3)n2nc(Nc3ccc(OCCN4CCCC4)cc3)nc2c1` [XX-044], the concentration for half-maximal inhibition (IC50) under setting [2] was less than 1 µM.

Compound `CCN(CC)CCN(C)c1cc(Nc2nc3cccc(-c4ccc(OC)cc4)n3n2)ccn1` [XX-326] displayed an IC50 under setting [1] of no more than 0.1 µM. The same measure, in the same setting: as for `CCN(CC)CCNc1cc(Nc2nc3cccc(-c4ccc(OC)cc4)n3n2)ccn1` [XX-300], the figure is 0.1 to 1 µM. Turning to `O=C(Nc1nc2cccc(-c3ccnc(F)c3)n2n1)C1CC1` [WW-030], the IC50 by setting is: under setting [2], 1 to 10 µM; under setting [1], 1 to 10 µM. `CC(C)Oc1ccc(-c2cccc3nc(Nc4ccc(OCCCN5CCCCC5)cc4)nn23)cc1` [XX-420] gave an IC50 under setting [1] of 0.1 to 1 µM. On the same count and under the same terms, as for `c1cc(-c2ccc3c(c2)OCCO3)n2nc(Nc3ccnc(OCCN4CCCC4)c3)nc2c1` [XX-099], the figure is 0.1 to 1 µM; as for `O=C(Cn1cc(-c2cccc3nc(Nc4ccc(OCCN5CCCC5)cc4)nn23)cn1)c1cccs1` [XX-317], 0.1 to 1 µM; as for `CN(C)CCCc1cccc(Nc2nc3cccc(-c4ccc5c(c4)OCCO5)n3n2)c1` [XX-115, [5-(2,3-Dihydro-benzo[1,4]dioxin-6-yl)-[1,2,4]triazolo[1,5-a]pyridin-2-yl]-[3-(3-dimethylamino-propyl)-phenyl]-amine], 0.1 to 1 µM. For `CNCCCOc1cccc(Nc2nc3cccc(-c4ccc5c(c4)OCCO5)n3n2)c1` [XX-069], the IC50 under setting [2] is less than 1 µM and the IC50 under setting [1] was no more than 0.1 µM.

`COc1cccc(CS(=O)(=O)n2cc(-c3cccc4nc(Nc5ccc(OCCN6CCCC6)cc5)nn34)cn2)c1` [XX-289] returned an IC50 under setting [1] of 0.1 to 1 µM. Same read-out and setting: next, `Fc1ccc(-c2cccc3nc(Nc4ccc(OCCN5CCCC5)cc4)nn23)cc1Cl` [XX-282]: 0.1 to 1 µM; `CS(=O)(=O)Nc1cccc(-c2cccc3nc(Nc4ccc(OCCN5CCCC5)cc4)nn23)c1` [XX-224]: 0.1 to 1 µM. For `CC(=O)Nc1cccc(-c2cccc3nc(NC(=O)C4CC4)nn23)c1` [WW-002, Cyclopropanecarboxylic acid [5-(3-acetylamino-phenyl)-[1,2,4]triazolo [1,5-a]pyridin-2-yl]-amide], the IC50 is, setting by setting: under setting [2], 1 to 10 µM; under setting [1], 1 to 10 µM. `O=C(c1cccc(-c2cccc3nc(Nc4ccc(OCCN5CCCC5)cc4)nn23)c1)c1ccc2c(c1)OCO2` [XX-310, Benzo[1,3]dioxol-5-yl-(3-{2-[4-(2-pyrrolidin-1-yl-ethoxy)-phenylamino]-[1,2,4]triazolo[1,5-a]pyridin-5-yl}-phenyl)-methanone] returned an IC50 under setting [1] of 0.1 to 1 µM. In the case of `COc1ccc(-c2cccc3nc(NC(=O)CC(C)C)nn23)cc1` [WW-043], the concentration for half-maximal inhibition (IC50) is 1 to 10 µM under setting [2] and 1 to 10 µM under setting [1]. Consider `O=C(Nc1nc2cccc(-c3ccc4ccccc4c3)n2n1)C1CC1` [WW-089], for which the IC50 runs as follows: under setting [2], less than 1 µM; under setting [1], 0.1 to 1 µM. Turning to `Cn1nccc1CNc1cccc(-c2cccc3nc(Nc4ccc(OCCN5CCCC5)cc4)nn23)c1` [XX-396], the IC50 under setting [1] is no more than 0.1 µM. The same measure, in the same setting: as for `COc1ccc(-c2cccc3nc(Nc4ccc(OCCN5CCCC5)cc4)nn23)nc1` [XX-235], the figure is 0.1 to 1 µM; as for `NCCSc1ccc(Nc2nc3cccc(-c4ccc5c(c4)OCCO5)n3n2)cc1` [XX-108], no more than 0.1 µM. For `O=C(Nc1nc2cccc(-c3ccc(-c4ccccc4)cc3)n2n1)C1CC1` [WW-063], the IC50 under setting [2] is less than 1 µM and the IC50 under setting [1] fell in the range of 0.1 to 1 µM.

Take `O=C(Nc1nc2cccc(-c3ccc(N4CCNCC4)cc3)n2n1)C1CC1` [WW-151, Cyclopropanecarboxylic acid [5-(4-piperazin-1-yl-phenyl)-[1,2,4]triazolo[1,5-a]pyridin-2-yl]-amide]: the IC50 under setting [2] was in the range of 1 to 10 µM and the IC50 under setting [1] was in the range of 1 to 10 µM. With `Cc1cc(-c2cccc3nc(NC(=O)C4CC4)nn23)ccn1` [WW-087], the half-inhibitory concentration (IC50) was 1 to 10 µM under setting [2] and 1 to 10 µM under setting [1]. As for `CCOc1ccc(-c2nccc3nc(Nc4ccc(OCCN5CCCC5)c(OC)c4)nn23)cc1` [YY-006], under setting [1], the IC50 was 0.1 to 1 µM. With `O=C(Nc1cccc(Cl)c1)Nc1cccc(-c2cccc3nc(Nc4ccc(OCCN5CCCC5)cc4)nn23)c1` [XX-176], the half-inhibitory concentration (IC50) under setting [1] was 0.1 to 1 µM. `CNc1ccc(Nc2nc3cccc(-c4ccc(OC)cc4)n3n2)cc1` [XX-056]: the IC50 was in the range of 1 to 10 µM under setting [2] and 1 to 10 µM under setting [1]. On to `O=C(Nc1nc2ccnc(-c3ccc4c(c3)OCCO4)n2n1)C1CC1` [ZZ-001, Cyclopropanecarboxylic acid [5-(2,3-dihydro-benzo[1,4]dioxin-6-yl)-[1,2,4]triazolo[1,5-c]pyrimidin-2-yl]-amide], for which the half-maximal inhibitory concentration (IC50) runs as follows: under setting [2], 0.364 µM; under setting [1], 0.1 to 1 µM. On to `CCCS(=O)(=O)n1cc(-c2cccc3nc(Nc4ccc(OCCN5CCCC5)cc4)nn23)cn1` [XX-380], for which the IC50 under setting [1] was no more than 0.1 µM. Still for that read-out and setting: as for `O=C(Nc1ccc(Cl)cc1)c1cccc(-c2cccc3nc(Nc4ccc(OCCN5CCCC5)cc4)nn23)c1` [XX-321], the figure is 1 to 10 µM; as for `CCN(CC)CCOc1cc(Nc2nc3cccc(-c4ccc(OC)c(F)c4)n3n2)ccn1` [XX-359], no more than 0.1 µM.

Consider `O=C(Nc1nc2cccc(Nc3ccccc3Cl)n2n1)C1CC1` [WW-128], for which the IC50 under setting [2] lay in the range of 1 to 10 µM and the IC50 under setting [1] lay in the range of 1 to 10 µM.

Consider `O=C(Nc1nc2cccc(-c3ccc(N4CCOCC4)cc3)n2n1)C1CC1` [WW-026], for which the IC50 under setting [2] was less than 1 µM and the IC50 under setting [1] lay in the range of 0.1 to 1 µM. Compound `O=S(=O)(Cc1cccc(Cl)c1)n1cc(-c2cccc3nc(Nc4ccc(OCCN5CCCC5)cc4)nn23)cn1` [XX-288] registered an IC50 under setting [1] of 0.1 to 1 µM.

With `COc1ccc(-c2cccc3nc(Nc4ccc(N)cc4)nn23)cc1` [XX-007], the IC50 is less than 1 µM under setting [2] and no more than 0.1 µM under setting [1]. As to `C[C@@H](N)COc1ccc(Nc2nc3cccc(-c4ccc5c(c4)OCCO5)n3n2)cc1` [XX-138], the IC50 under setting [1] lay within 0.1 to 1 µM. Turning to `c1cc(-c2ccc3c(c2)OCCO3)n2nc(Nc3ccc(SCCN4CCCC4)cc3)nc2c1` [XX-226], under setting [1], the 50% inhibitory concentration (IC50) lay within 0.1 to 1 µM.

Regarding `NCc1ccc(-c2cccc3nc(NC(=O)C4CC4)nn23)cc1` [WW-050], the IC50 is 1 to 10 µM under setting [2] and 1 to 10 µM under setting [1]. As to `COc1ccc(CNc2cccc(-c3cccc4nc(Nc5ccc(OCCN6CCCC6)cc5)nn34)c2)cc1` [XX-453], the IC50 under setting [1] lay in the range of 0.1 to 1 µM. Same read-out and setting: as for `COc1ccc(-c2cccc3nc(Nc4ccc(C(=O)NCCN5CCCC5)o4)nn23)cc1` [XX-408], the figure is 0.1 to 1 µM. As to `Cc1cc(-c2cccc3nc(NC(=O)C4CC4)nn23)cc(C)c1O` [WW-008, Cyclopropanecarboxylic acid [5-(4-hydroxy-3,5-dimethyl-phenyl)-[1,2,4]triazolo[1,5-a]pyridin-2-yl]-amide], the IC50 runs as follows: under setting [2], 1 to 10 µM; under setting [1], 1 to 10 µM. Regarding `Cc1ccccc1COc1cccc(-c2cccc3nc(Nc4ccc(OCCN5CCCC5)cc4)nn23)c1` [XX-400], the IC50 under setting [1] fell in the range of 1 to 10 µM.

For orientation: IC50 means the midpoint of a concentration-inhibition curve.
